Data published in ChEMBL document CHEMBL1201862, “PubChem BioAssay data set” (2004).
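Cultured in 96-well plates, cells were exposed to test compound for 48 hours across five concentrations. GI50 marks 50% less growth.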 The source made the active and inactive calls. No stated cut-off is given here; in the data, active = GI50 up to about 1.1 µM and inactive = higher.

How the values were obtained:
Experiment in all cases: DTP human tumour cell line panel, 48 h
[1] = system: DLD-1
[2] = system: DMS-273
[3] = system: HOP-18
[4] = system: KM-20L2
[5] = system: M19-MEL
[6] = system: SNB-78
[7] = system: LXFL 529
[8] = system: RXF 631
[9] = system: XF498

SMILES | GI50 [1] | GI50 [2] | GI50 [3] | GI50 [4] | GI50 [5] | GI50 [6] | GI50 [7] | GI50 [8] | GI50 [9]
C=C(/C=C/C=C(/CCC=C(C)C)COC(C)=O)[C@@H]1CC[C@]2([C@H](CCCO)/C(=C(/C)C=O)CC[C@]2(C)O)[C@@H]1O | 11.9 µM (inactive) | 2.27 µM (inactive) | 11.5 µM (inactive) | 14.4 µM (inactive) | 15.7 µM (inactive) | > 10 µM (inactive) | – | – | –
O=C1C2C3SC(c4cc5ccccc5cc43)C2C(=O)N1c1ccccc1 (stereo not drawn) | – | > 100 µM (inactive) | > 100 µM (inactive) | > 100 µM (inactive) | > 100 µM (inactive) | 84.5 µM (inactive) | 94.6 µM (inactive) | > 100 µM (inactive) | –
Cc1nc(N(CCO)CCO)c2sc(=S)n(-c3ccccc3)c2n1 | > 100 µM (inactive) | – | > 100 µM (inactive) | – | – | – | > 100 µM (inactive) | – | –
CNC(=O)c1cccc2c(Nc3ccc(NS(C)(=O)=O)cc3OC)c3cccc(C)c3nc12 | – | 0.0219 µM (active) | 0.571 µM (active) | 0.409 µM (active) | 0.585 µM (active) | – | 1.91 µM (inactive) | – | 0.196 µM (active)
Cc1nc2ccccc2c(=O)n1CC(=O)O | > 100 µM (inactive) | > 100 µM (inactive) | > 100 µM (inactive) | > 100 µM (inactive) | > 100 µM (inactive) | > 100 µM (inactive) | – | – | > 100 µM (inactive)
Nc1ccc2c(c1)C1=NNC(=O)CC1C2 (stereo not drawn) | > 100 µM (inactive) | > 100 µM (inactive) | > 77.6 µM (inactive) | > 100 µM (inactive) | > 100 µM (inactive) | > 100 µM (inactive) | – | – | > 100 µM (inactive)
Cc1nc2c(nc1Cl)nc(Oc1ccc(Cl)cc1)c1ccccc12 | 49.9 µM (inactive) | 46.5 µM (inactive) | – | > 100 µM (inactive) | > 100 µM (inactive) | 59.4 µM (inactive) | 51.4 µM (inactive) | > 100 µM (inactive) | 73.3 µM (inactive)
O=C(O)c1nccnc1C(=O)O | > 100 µM (inactive) | > 100 µM (inactive) | – | > 100 µM (inactive) | > 100 µM (inactive) | – | > 100 µM (inactive) | > 100 µM (inactive) | > 100 µM (inactive)
CC12CCC3C(CCC4CC(OC(=O)Cc5ccc(N(CCCl)CCCl)cc5)CCC43C)C1CCC(=O)N2 (stereo not drawn) | 18.7 µM (inactive) | 12.9 µM (inactive) | 17.3 µM (inactive) | 17.4 µM (inactive) | 17.2 µM (inactive) | 24.4 µM (inactive) | 16.2 µM (inactive) | – | 16.5 µM (inactive)
O=C1C2c3[nH]c4ccccc4c3C3CCSCC3C2C(=O)N1c1ccccc1 (stereo not drawn) | > 100 µM (inactive) | > 100 µM (inactive) | – | > 100 µM (inactive) | > 100 µM (inactive) | > 100 µM (inactive) | > 100 µM (inactive) | – | > 100 µM (inactive)
O=C(c1ccccc1)c1cc(Cl)ccc1NCn1nnc2ccccc21 | > 100 µM (inactive) | 39.1 µM (inactive) | > 100 µM (inactive) | 60.4 µM (inactive) | 81.7 µM (inactive) | – | 98.9 µM (inactive) | – | > 100 µM (inactive)
CC(C)NC(=O)OCc1nnn2c1CCC2 | > 100 µM (inactive) | – | – | > 100 µM (inactive) | > 100 µM (inactive) | > 100 µM (inactive) | > 100 µM (inactive) | – | > 100 µM (inactive)
O=S(O)CCCSSSCCCS(=O)O | > 100 µM (inactive) | – | – | > 100 µM (inactive) | > 100 µM (inactive) | > 100 µM (inactive) | > 100 µM (inactive) | > 100 µM (inactive) | > 100 µM (inactive)
C=C1CC(OC)(C(OC)C(=O)N[C@H]2OCO[C@H]3C2O[C@H](C[C@@H](COC)OC)C(C)(C)C3OC)O[C@H](C)[C@@H]1C (stereo partly drawn) | 0.805 µM (active) | 0.875 µM (active) | 2.08 µM (inactive) | 0.931 µM (active) | 0.778 µM (active) | 1.11 µM (active) | – | – | 0.604 µM (active)
C=C[C@@]12CCCCC1C/C(=C(/O)OC)C(=O)C2 (stereo partly drawn) | > 100 µM (inactive) | > 100 µM (inactive) | > 100 µM (inactive) | > 100 µM (inactive) | > 100 µM (inactive) | > 100 µM (inactive) | > 100 µM (inactive) | > 100 µM (inactive) | > 100 µM (inactive)
CC(=O)NC1=C(C)C(=O)c2c(nc3n2CCC3OC(=O)c2ccccc2)C1=O (stereo not drawn) | 1.81 µM (inactive) | 2.07 µM (inactive) | – | – | 1.69 µM (inactive) | 2.71 µM (inactive) | 1.56 µM (inactive) | – | –
CC(=O)O[C@H]1CC[C@@]2(C)[C@H](CC[C@@H]3[C@@H]2CC[C@]2(C)[C@@H](c4ccc(=O)oc4)C[C@H]4O[C@]342)C1 | 0.354 µM (active) | 0.458 µM (active) | 0.423 µM (active) | 1.38 µM (inactive) | 1.05 µM (active) | 0.404 µM (active) | – | – | 1.3 µM (inactive)
COc1cccc(/C=C(/C(=O)O)c2cc(OC)c(OC)c(OC)c2)c1 | > 100 µM (inactive) | > 100 µM (inactive) | > 100 µM (inactive) | > 100 µM (inactive) | > 100 µM (inactive) | > 100 µM (inactive) | > 100 µM (inactive) | > 100 µM (inactive) | 37.8 µM (inactive)
